Data taken from ChEMBL document CHEMBL5154712, “Activators of the Anticipatory Unfolded Protein Response with Enhanced Selectivity for Estrogen Receptor Positive Breast Cancer” (J Med Chem, 2022).
pIC50: −log10 of the molar value. Each block holds one molecule with its values, some of them ahead of it. Calls of active or inactive are those of the source. The rule behind the calls is not given here.

Experiments:
MCF7 [1] = assay: Anticancer activity against ERalpha positive human MCF7 cells assessed as cell growth inhibition incubated for 72 hrs by alamar blue assay; type: functional, cell-based; conditions: MCF7, 72 h
MCF7 [2] = assay: Anticancer activity against human MCF7 cells assessed as cell growth inhibition incubated for 24 hrs by alamar blue assay; type: functional, cell-based; conditions: MCF7, 24 h
MDA-MB-436 [3] = assay: Anticancer activity against ERalpha negative human MDA-MB-436 cells assessed as cell growth inhibition incubated for 24 hrs by alamar blue assay; type: functional, cell-based; conditions: MDA-MB-436, 24 h
HCT-116 [4] = assay: Anticancer activity against ERalpha negative human HCT-116 cells assessed as cell growth inhibition incubated for 72 hrs by alamar blue assay; type: functional, cell-based; conditions: HCT-116, 72 h
HT-29 [5] = assay: Anticancer activity against ERalpha negative human HT-29 cells assessed as cell growth inhibition incubated for 24 hrs by alamar blue assay; type: functional, cell-based; conditions: HT-29, 24 h
T47D [6] = assay: Anticancer activity against ERalpha positive human T47D cells assessed as cell growth inhibition incubated for 24 hrs by alamar blue assay; type: functional, cell-based
[7] = Toxicity in athymic nude mouse xenografted with human MCF7 cells assessed as change in body weight at 5 mg/kg, iv administered once a week for three doses administered for 14 days; type: organism-based; conditions: in vivo, 336 h, time 14 day
MCF7 [8] = assay: Antitumor activity against human MCF7 cells xenografted in athymic nude mouse assessed as reduction in tumor growth at 5 mg/kg, iv administered once a week for three doses administered for 14 days; type: functional, organism-based; conditions: time 14.0 day
[9] = Oral bioavailability in mouse; type: ADME, organism-based; conditions: in vivo
MCF7 [10] = assay: Anticancer activity against human MCF7 cells assessed as reduction in cell viability incubated for 24 hrs in presence of 10% CD-FBS and 17-beta-estradiol by alamar blue assay; type: functional, cell-based
HT-29 [11] = assay: Anticancer activity against ERalpha negative human HT-29 cells assessed as cell growth inhibition incubated for 72 hrs by alamar blue assay; type: functional, cell-based; conditions: HT-29, 72 h
MDA-MB-231 [12] = assay: Anticancer activity against ERalpha negative human MDA-MB-231 cells assessed as cell growth inhibition incubated for 168 hrs by alamar blue assay; type: functional, cell-based; conditions: MDA-MB-231, 168 h
[13] = Stability of the compound in simulated gastric fluid assessed as compound remaining measured after 120 mins by LC-MS/MS; type: ADME; conditions: read-out: Stability
[14] = Half life in CD-1 mouse at 20 mg/kg, iv by LC-MS/MS analysis; type: ADME, organism-based; conditions: mouse, in vivo, iv, 20 mg/kg
[15] = Toxicity in po dosed CD-1 mouse assessed as maximum tolerated dose administered as single dose; type: organism-based; conditions: in vivo
[16] = Cmax in CD-1 mouse at 20 mg/kg, iv by LC-MS/MS analysis; type: ADME, organism-based; parameters: dose 20 mg/kg, route iv; conditions: mouse, in vivo
[17] = MRT in CD-1 mouse at 20 mg/kg, iv by LC-MS/MS analysis; type: ADME, organism-based; conditions: mouse, in vivo, iv, 20 mg/kg
HCT-116 [18] = assay: Induction of ER stress in human HCT-116 cells assessed as increase in ATF6alpha-p90 cleavage at 0.1 to 10 uM measured after 24 to 48 hrs by Western blot analysis; type: functional, cell-based; conditions: dose 0.1-10 µM, time 24-48 hrs
MDA-MB-231 [19] = assay: Anticancer activity against ERalpha negative human MDA-MB-231 cells assessed as cell growth inhibition incubated for 72 hrs by alamar blue assay; type: functional, cell-based; conditions: MDA-MB-231, 72 h
[20] = Toxicity in iv dosed Sprague-Dawley rat assessed as maximum tolerated dose administered as single dose; type: organism-based; conditions: in vivo
[21] = Half life in mouse; type: ADME, organism-based; conditions: in vivo
T47D [22] = assay: Anticancer activity against human T47D cells harbouring ERalphaD538G mutant assessed as cell growth inhibition incubated for 24 hrs by alamar blue assay; type: functional, cell-based
MDA-MB-231 [23] = assay: Anticancer activity against ERalpha negative human MDA-MB-231 cells assessed as cell growth inhibition incubated for 24 hrs by alamar blue assay; type: functional, cell-based; conditions: MDA-MB-231, 24 h
[24] = AUC in CD-1 mouse at 20 mg/kg, iv by LC-MS/MS analysis; type: ADME, organism-based; parameters: dose 20 mg/kg, route iv; conditions: mouse, in vivo
T47D [25] = assay: Anticancer activity against human T47D cells harbouring ERalphaY537S mutant assessed as cell growth inhibition incubated for 24 hrs by alamar blue assay; type: functional, cell-based
[26] = Volume of distribution at steady state in CD-1 mouse at 20 mg/kg, iv by LC-MS/MS analysis; type: ADME, organism-based; conditions: mouse, in vivo, iv, 20 mg/kg
HCT-116 [27] = assay: Anticancer activity against ERalpha negative human HCT-116 cells assessed as cell growth inhibition incubated for 24 hrs by alamar blue assay; type: functional, cell-based; conditions: HCT-116, 24 h
HCT-116 [28] = assay: Induction of ER stress in human HCT-116 cells assessed as increase in phospho-EIF2alpha expression at 0.1 to 10 uM measured after 24 to 48 hrs by Western blot analysis; type: functional, cell-based; conditions: dose 0.1-10 µM, time 24-48 hrs
MCF7 [29] = assay: Anticancer activity against human MCF7 cells assessed as reduction in cell viability incubated for 24 hrs in presence of 10% CD-FBS by alamar blue assay; type: functional, cell-based
MDA-MB-436 [30] = assay: Anticancer activity against ERalpha negative human MDA-MB-436 cells assessed as cell growth inhibition incubated for 72 hrs by alamar blue assay; type: functional, cell-based; conditions: MDA-MB-436, 72 h
[31] = Selectivity ratio of IC50 for human MDA-MB-231 cells to IC50 for human MCF7 cells; type: functional
[32] = Selectivity ratio of IC50 for human HCT-116 cells to IC50 for human MCF7 cells; type: functional
[33] = Selectivity ratio of IC50 for human HT-29 cells to IC50 for human MCF7 cells; type: functional

pIC50 (MCF7 [1]): 6.83
pIC50 (MCF7 [2]): < 6.00
SMILES: O=C1Nc2c(C(F)(F)F)cccc2[C@@]1(c1ccc(O)cc1)N1CCC(F)CC1

SMILES: O=C1Nc2c(C(F)(F)F)cccc2[C@@]1(c1ccc(O)cc1)C1CCC(F)(F)CC1
pIC50 (MCF7 [2]): < 6.00

pIC50 (MCF7 [2]): < 6.00
SMILES: O=C1Nc2c(C(F)(F)F)cccc2C1(c1ccc(OC(F)(F)F)cc1)c1cc(F)c(O)c(F)c1 (configuration not stated)

pIC50 (MCF7 [2]): 6.75
SMILES: O=C1Nc2c(C(F)(F)F)cccc2C1(c1ccc(OC(F)(F)F)cc1)c1ccc(O)cc1F (configuration not stated)

pIC50 (MCF7 [2]): < 6.00
SMILES: O=C1Nc2c(C(F)(F)F)cccc2C1(c1ccc(O)cc1)N1CCCCCC1 (configuration not stated)

pIC50 (MCF7 [2]): < 6.00
SMILES: Cc1cc(C2(c3ccc(OC(F)(F)F)cc3)C(=O)Nc3c(C(F)(F)F)cccc32)ccc1O (configuration not stated)

pIC50 (MCF7 [2]): < 6.00
SMILES: O=C1Nc2c(C(F)(F)F)cccc2C1(c1ccc(O)cc1)N1CCCCC1 (configuration not stated)

pIC50 (MCF7 [2]): 7.31
SMILES: O=C1Nc2c(C(F)(F)F)cccc2C1(c1ccc(OC(F)(F)F)cc1)c1ccc(O)c(O)c1 (configuration not stated)

SMILES: O=C1Nc2c(C(F)(F)F)cccc2C1(c1ccc(O)cc1)c1ccc(OC(F)(F)F)cc1 (configuration not stated)
pIC50 (MDA-MB-436 [3]): 4.66
pIC50 (HCT-116 [4]): 6.59
pIC50 (HT-29 [5]): 6.68
pIC50 (T47D [6]): 7.70
Activity [7]: Non-Toxic
Activity (MCF7 [8]): Active
bioavailability [9]: 47%
Activity (MCF7 [10]): Active
pIC50 (HT-29 [11]): 6.60
pIC50 (MDA-MB-231 [12]): 5.22
remaining at 2 h [13]: 93%
t1/2 [14]: 0.917 h
MTD [15]: > 150 mg/kg
Cmax [16]: 7700 ng/mL
MRT [17]: 5.1 h
Activity (HCT-116 [18]): Active
pIC50 (MDA-MB-231 [19]): 5.10
MTD [20]: 10 mg/kg
half-life [21]: > 2 h
pIC50 (T47D [22]): 7.82
pIC50 (MDA-MB-231 [23]): 4.64
AUC [24]: 10100 ng·h/mL
pIC50 (T47D [25]): 8.00
Vdss [26]: 10.1 L/kg
pIC50 (HCT-116 [27]): 4.96
Activity (HCT-116 [28]): Active
Activity (MCF7 [29]): Active
pIC50 (MCF7 [2]): 7.70
pIC50 (MDA-MB-436 [30]): 4.85

pIC50 (MCF7 [2]): 6.87
SMILES: O=C1Nc2c(C(F)(F)F)cccc2C1(c1ccc(O)cc1)N1CCC(OC(F)(F)F)CC1 (configuration not stated)

pIC50 (MCF7 [2]): < 6.00
SMILES: O=C1Nc2c(C(F)(F)F)cccc2C1(c1ccc(O)cc1)N1CCOCC1 (configuration not stated)

pIC50 (MCF7 [2]): < 6.00
SMILES: O=C1Nc2c(C(F)(F)F)cccc2C1(c1ccc(O)cc1)N1CCC(O)CC1 (configuration not stated)

pIC50 (HCT-116 [4]): 4.70
pIC50 (HT-29 [5]): 4.46
pIC50 (HT-29 [11]): 4.52
remaining at 2 h [13]: 20%
pIC50 (MDA-MB-231 [19]): 4.49
pIC50 (MDA-MB-231 [23]): 4.29
pIC50 (HCT-116 [27]): 4.35
pIC50 (MCF7 [2]): 7.77
SMILES: O=C1Nc2c(C(F)(F)F)cccc2[C@@]1(c1ccc(O)cc1)N1CCC(F)(F)C1
Ratio IC50 [31]: 1500
Ratio IC50 [32]: 900
Ratio IC50 [33]: 1400
